US8563578B2, “Antitumor properties of NO modified protease inhibitors” (Onconox APS, priority 2008, dated 2013)

Test system: B16 cells
Assay: Viability (MTT) of B16 cells with Saq-NO2 plus Akt/PI-3K inhibitor
Type: cell-based, mouse
Conditions: B16, 24 h, 18.8 μM Saq-NO2 with Akt VI (50μg/ml) or 3-MA (1 mM)
Protocol: Reduction of 3-4,5-dimethylthiazol-2-yl)-2,5-diphenyltetrazolium bromide (MTT) to formazan depends on mitochondrial activity of cultured cells, absorption of crystal violet dye correlates with the number of adherent, live cells, while the release of cytosolic lactate dehydrogenase (LDH) indicates the disruption of membrane integrity caracteristic for necrotic cells. The cells were seeded in flat-bottom 96-well plates in a final volume of 200 μl of culture medium containing different agents, and the assays were performed after 24 h incubation exactly as previously described (Mijatovic et al. 2004, Decker et al., 1998). Mitohondrial-dependent production of formazan and intensity of absorbed crystal violet by adherent cells were assessed by an automated microplate reader at 570 nm, while the pyruvate-mediated conversion of 2,4-dinitrophenylhydrazine into visible hydrazone precipitate in LDH assay was measured at 492 nm. The % of cytotoxicity as indicated by LDH release was calculated as: (E−C)/(T−C)×100, where E is the experimental absorbance of cell cultures, C is the control absorbance of cell-free culture medium, and T is the absorbance corresponding to the maximal (100%) LDH release of Triton-lysed cells.
FIG. 6. […] (C) B16 cells (1×10^4 cells/well) were incubated for 24 h with 18.8 μM Saq-NO2 with or without Akt VI (50μg/ml) or 3-MA (1 mM) and cell viability was assessed by MTT. […]

Compound: Cn1cnc(=N)c2[nH]cnc21 [3-MA]
- tumor cell viability on addition of inhibitor to Saq-NO2: further decrease of tumor cell viability
